Laboratory results taken from paper PMC13164762, “Development and Validation of an LC-MS/MS Method for the Quantitation of JNJ-64619178 (JNJ) in Mouse Plasma: Characterization of In Vitro and In Vivo Pharmacokinetic Properties” (Molecules, 2026).
Values joined by “and” are separate entries in the source; they are usually repeats but may differ in a detail not shown here. Identical values can stand only once. Like-named read-outs stand apart in the source and are kept apart here.

Tests used:
[1] = Microsomal metabolic stability, mouse liver microsomes; type: in vitro ADME
Protocol: Mouse and human liver microsomes were used for the metabolic stability assay. In brief, the incubation mixture (500 µL) consisted of phosphate-buffered saline (PBS) (100 mM, pH 7.4), microsomal protein (0.5 mg mL^−1), magnesium chloride (10 mM), and NADPH (2 mM). Following pre-incubation of the above reaction mixture for 10 min at 37 °C, the reaction was initiated by spiking JNJ at a final 1 µg mL^−1 concentration. Alongside the test compound, testosterone at a final concentration of 1 µg mL^−1 was incubated as a positive control. All experiments were performed in triplicate. At sampling times of 0, 5, 10, 20, 30, 45, and 60 min, 40 µL samples were collected and quenched with 300 µL ice-chilled acetonitrile supplemented with 10 µL IS. Simultaneously, samples from NADPH-free negative controls were also withdrawn and processed accordingly to confirm any non-enzymatic degradation. Finally, after 1 h of collection, samples were vortexed at 1000 rpm for 1 min and centrifuged at 2200× g for 15 min, and the collected supernatant was analyzed using LC-MS/MS.
The natural logarithm of the area ratio versus time was plotted, and the slope of the curve was calculated by a linear regression equation to generate the elimination rate constant, k (min^−1). CLint was calculated by the following equation:(2) CLint=0.693/t1/2×Volume of incubation mixture (mL)/microsomal protein (mg)
CLH,int of JNJ in the mouse and human liver was then estimated from CLint using the scaling factor.(3) CLH,int=CLint×Microsomal protein (mg)/Liver (g)×Liver weight (g)/Body weight (kg)
Here, 45 and 32 mg of microsomal protein per g of liver weight were applied, and 60 and 25 g of liver weight per kg body weight were used for mouse and human tissue, respectively.
Then, CLH,int was corrected for microsomal binding (CLH,int/fu,inc) and CLH,predict was predicted using the well-stirred model by the following equation:(4) CLH,predict=Q × fu,plasma×CLH,int/fu,inc /Q + fu,plasma×CLH,int/fu,inc
Here, Q is the hepatic blood flow (90 mL min^−1 kg^−1 in mouse), fu,plasma is the fraction unbound in plasma, fu,inc is the fraction unbound in microsomal incubation and CLH,int is included from Equation (3); fu,inc was calculated by adding logP of JNJ (2.3) to the following equation:(5) fu,inc=1/1 + 10^0.53 logP − 1.42

[2] = Blood-to-plasma ratio (Rb/p) study; type: in vitro ADME; details: balb/c mouse whole blood
Protocol: Freshly collected whole blood (400 µL) of balb/c mice was taken into an Eppendorf tube, and JNJ was spiked to obtain a final concentration at 5 µg mL^−1 following proper mixing. Blood and plasma samples were collected at 0, 30, and 60 min and processed using the previously described extraction procedure. Rb/p was then estimated by dividing the JNJ concentration in blood by the concentration obtained in plasma samples separated from blood using Equation (5), where CBlood is the drug concentration in blood and CPlasma is the drug concentration in plasma.(7) Rb/p=CBlood/CPlasma

[3] = Biodistribution and brain penetration after PO dose; type: in vivo, balb/c mice; details: for concentration at 2 h / concentration at 8 h / concentration at 24 h: po
Protocol: Mouse plasma and tissue samples (liver, spleen, kidney, lung and brain) were prepared following the SPE procedure. Collected tissues were homogenized using Tissue Lyser II purchased from Qiagen Science, KY, after adding four times as much water as the tissue mass. For calibration standards and QC sample preparation, the 10 µL working stock and IS were spiked into 100 µL mouse plasma or tissue homogenates (liver, spleen, kidney, lung, and brain). After vortexing for 30 s on a Mixmate (Eppendorf North America, Enfield, CT, USA), samples were diluted with 600 µL of 5% formic acid and vortexed again at 1000 rpm for 2 min. Samples were centrifuged at 956× g for 10 min to get a clear sample that was not prone to blocking the cartridge during the SPE. Extraction was initiated by conditioning the cartridge (Oasis HLB 1 cc, Waters, Millford, MA, USA) with 1 mL of methanol, followed by a second conditioning with 1 mL of water. Then, the above-prepared samples were loaded into the cartridge and allowed to pass through the cartridge. Next, the cartridge was washed with 1 mL 15% methanol and dried for 1 min prior to the elution. For final elution, 500 µL 5% ammonium hydroxide in acetonitrile was eluted through the cartridges twice. Collected eluates were dried in a nitrogen dryer and reconstituted with 200 µL of mobile phase. Reconstituted samples were centrifuged at 956× g for 10 min, 150 µL supernatants were collected, and 5 µL was injected for LC-MS/MS.
For the oral PK study, male balb/C mice were grouped into two groups, with n = 4 for each group. Throughout the experiment, mice had free access to adequate food and water. The oral solution comprised 20% (v/v) polyethylene glycol 400, 10% (v/v) propylene glycol, 10% (v/v) ethanol, 2% (v/v) DMSO, 5% cremophore, and water as the rest of the volume. For the IV dose administration, 12 male balb/C mice were used in the study, divided into two groups. The IV solution used the same composition as the oral study. Doses of 10 and 2.5 mg kg^−1 were used for oral and IV routes, respectively. Blood samplings were done at 5 min, 15 min, 30 min, 1 h, 2 h, 4 h, 8 h, and 24 h. After collection, blood samples were centrifuged immediately at 956× g for 10 min, and plasma was separated in an Eppendorf tube and stored at −80 °C until processed. In the oral PK study, tissues—liver, kidney, spleen, lung, and brain—were collected at 2, 8, and 24 h to assess the biodistribution pattern of JNJ in the oral route.

[4] = tested on: HD-MB cell line; details: method and reference not given; cited from earlier work

microsomal intrinsic clearance (CLint) ([1]; MLM, mean ± SD, n = 3): 0.02 ± 0.01 mL min^−1 mg^−1 protein | half-life at 1 µg mL^−1 ([1]; mouse, liver microsomes, pH 7.4, MLM, mean ± SD, n = 3, read-out: Half-life (t1/2)): 1.68 ± 0.65 h | remaining at 1 h, 1 µg mL^−1 ([1]; mouse, liver microsomes, pH 7.4, MLMs, NADPH, 1 µg mL^−1, n = 3, read-out: percent remaining concentration after 1 h incubation): 60 ± 12% | blood plasma ratio at 5 µg mL^−1 [2]: ~0.7 | Brain Content ([3]; 2 h after single PO 10 mg kg^−1, balb/c mice, n = 4): 55 ng/g | Brain Content ([3]; 8 h after single PO 10 mg kg^−1, balb/c mice, n = 4): 34 ng/g | Brain Content ([3]; 24 h after single PO 10 mg kg^−1, balb/c mice, n = 4): 23 ng/g | unbound plasma and brain concentrations/contents, fold lower than in vitro IC50 ([3]; across all time points, PO 10 mg kg^−1): more than 20 fold | concentration at 2 h ([3]; male, BALB/c, mouse, brain, 10 mg kg^−1, 2 h, PO 10 mg kg^−1, estimated with fu,brain = 0.057, read-out: Unbound Brain Content): 3.1 ng/g | concentration at 2 h ([3]; male, BALB/c, mouse, brain, 10 mg kg^−1, 2 h after single PO 10 mg kg^−1, balb/c mice, n = 4, read-out: Brain Content): 55 ± 27 ng/g | concentration at 8 h ([3]; male, BALB/c, mouse, brain, 10 mg kg^−1, 8 h, PO 10 mg kg^−1, estimated with fu,brain = 0.057, read-out: Unbound Brain Content): 1.9 ng/g | concentration at 8 h ([3]; male, BALB/c, mouse, brain, 10 mg kg^−1, 8 h after single PO 10 mg kg^−1, balb/c mice, n = 4, read-out: Brain Content): 34 ± 1 ng/g | concentration at 24 h ([3]; male, BALB/c, mouse, brain, 10 mg kg^−1, 24 h, PO 10 mg kg^−1, estimated with fu,brain = 0.057, read-out: Unbound Brain Content): 1.3 ng/g | concentration at 24 h ([3]; male, BALB/c, mouse, brain, 10 mg kg^−1, 24 h after single PO 10 mg kg^−1, balb/c mice, n = 4, read-out: Brain Content): 23 ± 3 ng/g | concentration at 8 h ([3]; male, BALB/c, mouse, kidney, 10 mg kg^−1, 8 h after single PO 10 mg kg^−1, balb/c mice, n = 4, read-out: Content, Kidney): 474 ± 131 ng/g | concentration at 24 h ([3]; male, BALB/c, mouse, kidney, 10 mg kg^−1, 24 h after single PO 10 mg kg^−1, balb/c mice, n = 4, read-out: Content, Kidney): 56 ± 27 ng/g | concentration at 8 h ([3]; male, BALB/c, mouse, liver, 10 mg kg^−1, 8 h after single PO 10 mg kg^−1, balb/c mice, n = 4, read-out: Content, Liver): 1190 ± 167 ng/g | concentration at 24 h ([3]; male, BALB/c, mouse, liver, 10 mg kg^−1, 24 h after single PO 10 mg kg^−1, balb/c mice, n = 4, read-out: Content, Liver): 52 ± 31 ng/g | concentration at 2 h ([3]; male, BALB/c, mouse, lung, 10 mg kg^−1, 2 h after single PO 10 mg kg^−1, balb/c mice, n = 4, read-out: Content, Lung): 2570 ± 550 ng/g | concentration at 8 h ([3]; male, BALB/c, mouse, lung, 10 mg kg^−1, 8 h after single PO 10 mg kg^−1, balb/c mice, n = 4, read-out: Content, Lung): 599 ± 91 ng/g | concentration at 24 h ([3]; male, BALB/c, mouse, lung, 10 mg kg^−1, 24 h after single PO 10 mg kg^−1, balb/c mice, n = 4, read-out: Content, Lung): 45 ± 25 ng/g | concentration at 2 h ([3]; male, BALB/c, mouse, plasma, 10 mg kg^−1, 2 h, PO 10 mg kg^−1, balb/c mice, read-out: Plasma Concentration): 1470 ng/mL | concentration at 2 h ([3]; male, BALB/c, mouse, plasma, 10 mg kg^−1, 2 h, PO 10 mg kg^−1, estimated with fu,plasma = 0.025, read-out: Unbound Plasma Concentration): 37 ng/mL | concentration at 8 h ([3]; male, BALB/c, mouse, plasma, 10 mg kg^−1, 8 h, PO 10 mg kg^−1, balb/c mice, read-out: Plasma Concentration): 93 ng/mL | concentration at 8 h ([3]; male, BALB/c, mouse, plasma, 10 mg kg^−1, 8 h, PO 10 mg kg^−1, estimated with fu,plasma = 0.025, read-out: Unbound Plasma Concentration): 2.3 ng/mL | concentration at 24 h ([3]; male, BALB/c, mouse, plasma, 10 mg kg^−1, 24 h, PO 10 mg kg^−1, balb/c mice, read-out: Plasma Concentration): 1.6 ng/mL | concentration at 24 h ([3]; male, BALB/c, mouse, plasma, 10 mg kg^−1, 24 h, PO 10 mg kg^−1, estimated with fu,plasma = 0.025, read-out: Unbound Plasma Concentration): 0.04 ng/mL | concentration at 2 h ([3]; male, BALB/c, mouse, spleen, 10 mg kg^−1, 2 h after single PO 10 mg kg^−1, balb/c mice, n = 4, read-out: Content, Spleen): 1900 ± 220 ng/g | concentration at 8 h ([3]; male, BALB/c, mouse, spleen, 10 mg kg^−1, 8 h after single PO 10 mg kg^−1, balb/c mice, n = 4, read-out: Content, Spleen): 643 ± 58 ng/g | concentration at 24 h ([3]; male, BALB/c, mouse, spleen, 10 mg kg^−1, 24 h after single PO 10 mg kg^−1, balb/c mice, n = 4, read-out: Content, Spleen): 95 ± 25 ng/g | concentration at 2 h ([3]; male, balb/c, mouse, kidney, 10 mg kg^−1, 2 h after single PO 10 mg kg^−1, balb/c mice, n = 4, read-out: Content, Kidney): 2950 ± 822 ng/g | concentration at 2 h ([3]; male, balb/c, mouse, liver, 10 mg kg^−1, 2 h after single PO 10 mg kg^−1, balb/c mice, n = 4, read-out: Content, Liver): 6070 ± 1500 ng/g | Kp uu at 2 h ([3]; male, mouse, brain, 2 h, PO 10 mg kg^−1, balb/c mice, read-out: Kp,uu,brain (unbound brain-to-plasma partition coefficient)): 0.08 | Kp uu at 8 h ([3]; male, mouse, brain, 8 h, PO 10 mg kg^−1, balb/c mice, read-out: Kp,uu,brain (unbound brain-to-plasma partition coefficient)): 0.82 | Kp uu at 24 h ([3]; male, mouse, brain, 24 h, PO 10 mg kg^−1, balb/c mice, read-out: Kp,uu,brain (unbound brain-to-plasma partition coefficient)): 33.3
SMILES: Nc1nc2cc(CC[C@H]3C[C@@H](n4ccc5c(N)ncnc54)[C@H](O)[C@@H]3O)ccc2cc1Br [JNJ, JNJ-64619178]
hepatic intrinsic clearance (CLH,int) ([1]; MLM, scaled from CLint (45 mg protein/g liver, 60 g liver/kg)): 41 ± 19 mL min^−1 kg^−1 body weight | predicted in vivo hepatic clearance (CLH,predict) ([1]; mice, in vitro scaling, well-stirred model): 1.6 mL min^−1 kg^−1 body weight and 1.6 ± 0.7 mL min^−1 kg^−1 body weight | IC50 [4]: 1700 nM | In Vitro IC50 [4]: 0.821 µg/mL
